In the supplement of paper PMC4862054:
Values joined by “and” are separate entries in the source; they are usually repeats but may differ in a detail not shown here. Equal entries are not always repeated.

How the values were obtained:
DU-4475 [1] = assay: normalised viability (% of control), CellTiter-Blue; higher = more viable cells (about 100 = DMSO control); conditions: incubation time: 72 h
Experimental: (§1)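 DSRT, CellTiter-Blue viability, 72 h incubation. Signal is normalised to DMSO and benzethonium chloride controls. Value is the normalised response at dose 9.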

CAL-85-1 [2] = assay: as above; conditions: incubation time: 72 h
Experimental: as §1

MDA-MB-453 [3] = assay: as above; conditions: incubation time: 72 h
Experimental: as §1

CAL-51 [4] = assay: as above; conditions: incubation time: 72 h
Experimental: as §1

CAL-148 [5] = assay: as above; conditions: incubation time: 72 h
Experimental: as §1

HCC1599 [6] = assay: drug sensitivity score (DSS), CellTiter-Blue viability (DSS (AUC-based score)); higher = stronger viability inhibition; extreme values may be limits of the assay; conditions: incubation time: 72 h
Experimental: (§2)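 DSRT with the CellTiter-Blue (resazurin reduction) viability readout, fluorescence 560/590 nm, 72 h incubation. Plates were normalised to DMSO and benzethonium chloride controls. DSS is computed from the area under the fitted dose-response curve (5 or 9 concentrations).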

CAL-120 [7] = assay: as above; conditions: incubation time: 72 h
Experimental: as §2

MDA-MB-436 [8] = assay: as above; conditions: incubation time: 72 h
Experimental: as §2

Hs578T [9] = assay: as above; conditions: incubation time: 72 h
Experimental: as §2

DU-4475 [10] = assay: normalised viability (% of control), CellTiter-Blue; higher = more viable cells (about 100 = DMSO control); conditions: incubation time: 72 h; remark: listed apart in the source
Summary of the method: (§3)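 Normalised viability is given for a single listed concentration of the series. In 384-well plates, breast cancer cell lines were incubated 72 h with compound, then read with CellTiter-Blue (2 h, 37 °C) at 560/590 nm. Per-plate scaling set vehicle to 100 and a positive kill control to 0, with Z'-factor quality control.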

HCC1937 = assay: as above; conditions: incubation time: 72 h
Summary of the method: as §3

MDA-MB-468 = assay: as above; conditions: incubation time: 72 h
Summary of the method: as §3

HCC1599 [11] = assay: as above; conditions: incubation time: 72 h
Summary of the method: as §3

CAL-85-1 [12] = assay: as above; conditions: incubation time: 72 h; remark: listed apart in the source
Summary of the method: as §3

MDA-MB-453 [13] = assay: as above; conditions: incubation time: 72 h; remark: listed apart in the source
Summary of the method: as §3

MDA-MB-231 = assay: as above; conditions: incubation time: 72 h
Summary of the method: as §3

BT-474 = assay: as above; conditions: incubation time: 72 h
Summary of the method: as §3

CAL-120 [14] = assay: as above; conditions: incubation time: 72 h
Summary of the method: as §3

HCC1143 = assay: as above; conditions: incubation time: 72 h
Summary of the method: as §3

BT-549 = assay: as above; conditions: incubation time: 72 h
Summary of the method: as §3

SK-BR-3 = assay: as above; conditions: incubation time: 72 h
Summary of the method: as §3

MDA-MB-436 [15] = assay: as above; conditions: incubation time: 72 h
Summary of the method: as §3

Hs578T [16] = assay: as above; conditions: incubation time: 72 h
Summary of the method: as §3

CAL-51 [17] = assay: as above; conditions: incubation time: 72 h; remark: listed apart in the source
Summary of the method: as §3

CAL-148 [18] = assay: as above; conditions: incubation time: 72 h; remark: listed apart in the source
Summary of the method: as §3

MFM-223 = assay: as above; conditions: incubation time: 72 h
Summary of the method: as §3

HDQ-P1 = assay: as above; conditions: incubation time: 72 h
Summary of the method: as §3

MDA-MB-453 [19] = conditions: 72 h
Summary of the method: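 Breast cancer cell lines in 20 µl suspension were seeded onto 384-well plates pre-loaded with compound dissolved in 5 µl medium, then incubated 72 h. For viability, 2.5 µl CellTiter-Blue was added for 2 h at 37 °C and fluorescence read at 560/590 nm. Each plate was normalised to vehicle and a positive kill control and checked by Z'-factor. EC50 comes from the fitted percent-inhibition dose-response curve, censored at the highest concentration; rows with zero drug sensitivity score were dropped.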

O=C(O)CCCc1ccc(N(CCCl)CCCl)cc1 [Chlorambucil] showed a normalised viability (DU-4475 [1]; 10000 nM) of 90.9%, a normalised viability (CAL-85-1 [2]; 10000 nM) of 98% and a normalised viability (MDA-MB-453 [3]; 10000 nM) of 65%. The normalised viability (CAL-51 [4]; 10000 nM) was 96.5%, the normalised viability (CAL-148 [5]; 10000 nM) was 89.7% and the drug sensitivity score (HCC1599 [6]) was 0. For the same molecule, the drug sensitivity score (CAL-120 [7]) was 0, the drug sensitivity score (MDA-MB-436 [8]) was 0 and the drug sensitivity score (Hs578T [9]) was 0. It also gave a normalised viability (DU-4475 [10]; 100 nM) of 112%, a normalised viability (HCC1937; 10000 nM) of 52.8% and a normalised viability (MDA-MB-468; 10000 nM) of 81.2%. The normalised viability (HCC1599 [11]; 10000 nM) was 92.5%, the normalised viability (CAL-85-1 [12]; 100 nM) was 98.6% and the normalised viability (MDA-MB-453 [13]; 100 nM) was 114%. For the same molecule, the normalised viability (MDA-MB-231; 10000 nM) was 88.4%, the normalised viability (BT-474; 10000 nM) was 118% and the normalised viability (CAL-120 [14]; 10000 nM) was 91%. It also gave a normalised viability (HCC1143; 10000 nM) of 96%, a normalised viability (BT-549; 10000 nM) of 74.7% and a normalised viability (SK-BR-3; 10000 nM) of 80.4%. For the same molecule, the normalised viability (MDA-MB-436 [15]; 10000 nM) was 83.3%, the normalised viability (Hs578T [16]; 10000 nM) was 87.5% and the normalised viability (CAL-51 [17]; 100 nM) was 107%. The normalised viability (CAL-148 [18]; 100 nM) was 103%, the normalised viability (MFM-223; 10000 nM) was 85.8% and the normalised viability (HDQ-P1; 100 nM) was 111%.

With Cc1cc2c(C(C)C)c(O)c(O)c(C=O)c2c(O)c1-c1c(C)cc2c(C(C)C)c(O)c(O)c(C=O)c2c1O [Gossypol] the normalised viability (DU-4475 [1]; 100000 nM) was 4.97%, the normalised viability (CAL-85-1 [2]; 100000 nM) was 3.4% and the normalised viability (MDA-MB-453 [3]; 100000 nM) was 2.75%. It also gave a normalised viability (CAL-51 [4]; 100000 nM) of 2.71%, a normalised viability (CAL-148 [5]; 100000 nM) of 3.73% and a normalised viability (DU-4475 [10]; 1000 nM) of 113%. It also gave a normalised viability (HCC1937; 100000 nM) of 6.06%, a normalised viability (MDA-MB-468; 100000 nM) of 2.31% and a normalised viability (HCC1599 [11]; 100000 nM) of 4.74%. The normalised viability (CAL-85-1 [12]; 1000 nM) was 87.7%, the normalised viability (MDA-MB-453 [13]; 1000 nM) was 105% and the normalised viability (MDA-MB-231; 100000 nM) was 5.74%. It also gave a normalised viability (BT-474; 100000 nM) of 20.4%, a normalised viability (CAL-120 [14]; 100000 nM) of 3.6% and a normalised viability (HCC1143; 100000 nM) of 15.7%. It also gave a normalised viability (BT-549; 100000 nM) of 2.19%, a normalised viability (SK-BR-3; 100000 nM) of 1.49% and a normalised viability (MDA-MB-436 [15]; 100000 nM) of 1.2%. It also gave a normalised viability (Hs578T [16]; 100000 nM) of 1.54%, a normalised viability (CAL-51 [17]; 1000 nM) of 92.1% and a normalised viability (CAL-148 [18]; 1000 nM) of 107%. The normalised viability (MFM-223; 100000 nM) was 4.14% and the normalised viability (HDQ-P1; 1000 nM) was 128%.

For CO[C@H]1C[C@@H]2CC[C@@H](C)[C@@](O)(O2)C(=O)C(=O)N2CCCC[C@H]2C(=O)O[C@H]([C@H](C)C[C@@H]2CC[C@@H](OCCO)[C@H](OC)C2)CC(=O)[C@H](C)/C=C(\C)[C@@H](O)[C@@H](OC)C(=O)[C@H](C)C[C@H](C)/C=C/C=C/C=C/1C [Everolimus], the “EC50, CellTiter-Blue viability” value (MDA-MB-453 [19]) was 0.4 nM, the normalised viability (DU-4475 [1]; 1000 nM) was 61.8% and 39.1% and the normalised viability (CAL-85-1 [2]; 1000 nM) was 62% and 43%. For the same molecule, the normalised viability (MDA-MB-453 [3]; 1000 nM) was 25.4% and 15.4%, the normalised viability (CAL-51 [4]; 1000 nM) was 37% and 28.9% and the normalised viability (CAL-148 [5]; 1000 nM) was 38% and 16.3%. For the same molecule, the drug sensitivity score (CAL-120 [7]) was 19.7 and 24.1, the drug sensitivity score (MDA-MB-436 [8]) was 0 and the normalised viability (DU-4475 [10]; 10 nM) was 64.3% and 57.3%. The normalised viability (HCC1937; 1000 nM) was 45.8% and 46.6%, the normalised viability (MDA-MB-468; 1000 nM) was 56.8% and 64.2% and the normalised viability (HCC1599 [11]; 1000 nM) was 86.7% and 68.9%. The normalised viability (CAL-85-1 [12]; 10 nM) was 68.8% and 61.3%, the normalised viability (MDA-MB-453 [13]; 10 nM) was 32.7% and 28.1% and the normalised viability (MDA-MB-231; 1000 nM) was 73.9% and 77.5%. For the same molecule, the normalised viability (BT-474; 1000 nM) was 65% and 59.1%, the normalised viability (CAL-120 [14]; 1000 nM) was 53.2% and 38.1% and the normalised viability (BT-549; 1000 nM) was 56.4% and 46.6%. The normalised viability (SK-BR-3; 1000 nM) was 55.1% and 36.7%, the normalised viability (MDA-MB-436 [15]; 1000 nM) was 93.8% and 71.5% and the normalised viability (Hs578T [16]; 1000 nM) was 53.2% and 41.5%. For the same molecule, the normalised viability (CAL-51 [17]; 10 nM) was 39.8% and 39.5%, the normalised viability (CAL-148 [18]; 10 nM) was 44.4% and 37.9% and the normalised viability (MFM-223; 1000 nM) was 51.6% and 26.8%. The normalised viability (HDQ-P1; 10 nM) was 79.4% and 60.5%.

With Cc1ccc(NC(=O)c2ccc(CN3CCN(C)CC3)cc2)cc1Nc1nccc(-c2cccnc2)n1 [Imatinib] the “EC50, CellTiter-Blue viability” value (MDA-MB-453 [19]) was 4540 nM, the normalised viability (DU-4475 [1]; 10000 nM) was 121% and 110% and the normalised viability (CAL-85-1 [2]; 10000 nM) was 87.7% and 85.9%. The normalised viability (MDA-MB-453 [3]; 10000 nM) was 57.6% and 48.6%, the normalised viability (CAL-51 [4]; 10000 nM) was 110% and 93.9% and the normalised viability (CAL-148 [5]; 10000 nM) was 80.5% and 92.7%. It also gave a drug sensitivity score (HCC1599 [6]) of 0, a drug sensitivity score (CAL-120 [7]) of 0 and a drug sensitivity score (MDA-MB-436 [8]) of 0. The drug sensitivity score (Hs578T [9]) was 0, the normalised viability (DU-4475 [10]; 100 nM) was 89.4% and 111% and the normalised viability (HCC1937; 10000 nM) was 88%. The normalised viability (MDA-MB-468; 10000 nM) was 103% and 99.3%, the normalised viability (HCC1599 [11]; 10000 nM) was 97.8% and 103% and the normalised viability (CAL-85-1 [12]; 100 nM) was 90.9%. For the same molecule, the normalised viability (MDA-MB-453 [13]; 100 nM) was 104% and 99.3%, the normalised viability (MDA-MB-231; 10000 nM) was 107% and 104% and the normalised viability (BT-474; 10000 nM) was 104% and 96.8%. For the same molecule, the normalised viability (CAL-120 [14]; 10000 nM) was 114%, the normalised viability (HCC1143; 10000 nM) was 86.7% and 88.8% and the normalised viability (BT-549; 10000 nM) was 93% and 76.6%. For the same molecule, the normalised viability (SK-BR-3; 10000 nM) was 80.8% and 91.9%, the normalised viability (MDA-MB-436 [15]; 10000 nM) was 97.6% and 106% and the normalised viability (Hs578T [16]; 10000 nM) was 95.3% and 109%. For the same molecule, the normalised viability (CAL-51 [17]; 100 nM) was 102% and 98.4%, the normalised viability (CAL-148 [18]; 100 nM) was 85.4% and 91.8% and the normalised viability (MFM-223; 10000 nM) was 105% and 98%.
